Reference: patent US5208344A, “Naphthalenepropionic acid derivatives as anti-inflammatory/antiallergic agents” (American Home Products Corporation, priority 1991, dated 1993)

Key:
LTD4 = biological target: T1, LTD4 (Cavia porcellus, UniProt Q2NNR5); experiment: LTD4 antagonist activity in isolated guinea pig trachea; assay type: cell-based; conditions: 1 × 10^-5 M
T1 construct: isolated guinea pig trachea; from tissue; host or cells: guinea pig tracheal rings
T1 sequence (Q2NNR5 1-340): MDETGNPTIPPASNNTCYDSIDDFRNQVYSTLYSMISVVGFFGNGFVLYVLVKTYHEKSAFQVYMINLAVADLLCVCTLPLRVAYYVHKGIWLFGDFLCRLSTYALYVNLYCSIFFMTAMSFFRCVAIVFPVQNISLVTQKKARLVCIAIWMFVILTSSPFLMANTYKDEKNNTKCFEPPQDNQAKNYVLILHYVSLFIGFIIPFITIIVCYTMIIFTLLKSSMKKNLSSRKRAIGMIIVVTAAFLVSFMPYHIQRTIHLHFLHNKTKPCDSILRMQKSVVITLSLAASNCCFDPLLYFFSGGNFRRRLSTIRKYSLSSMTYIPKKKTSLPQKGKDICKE
Description: The LTD4 antagonist activity of the compounds of the invention is assessed in the in vitro isolated guinea pig trachea assay. Male Hartley guinea pigs (350-400 g) are euthanized by a blow to the head, the neck is opened and the trachea removed. The trachea is maintained in aerated physiological salt solution, cleared of connective tissue and fat and cut into rings approximately 2 mm in width (usually containing two cartilaginous segments per ring). Two pieces of silk suture are then passed through the lumen of the tracheal ring and are tied around the cartilage, one on each side of the trachealis muscle. The tracheal ring is suspended between a glass hook and a force displacement transducer in a 10 ml organ bath for measurement of isometric tension. Tissues are maintained at 37° C. in aerated ([…] /5% CO2) physiological salt solution of the following composition: […] The tracheal rings are maintained at 2 g resting tension and equilibrated for 45 minutes (with frequence washing and readjustment of resting tension). The tracheal rings are first contracted by the addition of carbachol (3×10^-6 M), to determine tissue responsiveness and establish a reference contraction. On attainment of a stable level of contraction (approximately 30 minutes), the tissues are washed several times until baseline tension has been restored and the re-equilibrated for 30 minutes. The tissues are then incubated for 45 minutes with a test antagonist (either 1×10^-6 M or 1×10^-5 M) or 10 μl of an appropriate solvent control (control, non-treated). One tissue in each group serves as the control. Twenty minutes prior to the construction of the LTD4 cumulative concentration-response curve, L-[…]×10^-2 M final bath concentration) is added to inhibit bioconversion of LTD4 to LTE4. Only one LTD4 concentration-response curve is constructed in each tissue. All responses to LTD4 in an individual tissue are measured as a percentage of the reference contraction of that tissue to carbachol. LTD4 antagonist activity is determined by comparison of the concentration response curves of LTD4 in the presence and absence of antagonist. Assessment of the relative rightward shift of the antagonist treated curve relative to the solvent (control) treated tissue is calculated as a concentration ratio (Eq. A) and used in subsequent calculations to derive an antagonist pKB value (Eqs. B and C). In the vent that the maximum response to LTD4 is depressed, the EC50 for that particular curve is determined, an "apparent" pKB reported, and the compound reported as "not-competitive." [formula] If a compound is found to be active and/or depress the maximal response to LTD4, then a range of concentrations of the test compound should be used generating multiple concentration ratios which would than be used to perform a Schild analysis, and determination of a pA2 value where appropriate.

5-lipoxygenase = biological target: T2, 5-lipoxygenase (Homo sapiens, UniProt P09917); experiment: inhibition of 5-lipoxygenase in human whole blood (LTB4); assay type: cell-based; conditions: human whole blood
T2 construct: Blood is obtained in 50-100 ml quantities from male donors; endogenous in cells; host or cells: human whole blood (leukocytes) from male donors
T2 sequence (P09917 1-674): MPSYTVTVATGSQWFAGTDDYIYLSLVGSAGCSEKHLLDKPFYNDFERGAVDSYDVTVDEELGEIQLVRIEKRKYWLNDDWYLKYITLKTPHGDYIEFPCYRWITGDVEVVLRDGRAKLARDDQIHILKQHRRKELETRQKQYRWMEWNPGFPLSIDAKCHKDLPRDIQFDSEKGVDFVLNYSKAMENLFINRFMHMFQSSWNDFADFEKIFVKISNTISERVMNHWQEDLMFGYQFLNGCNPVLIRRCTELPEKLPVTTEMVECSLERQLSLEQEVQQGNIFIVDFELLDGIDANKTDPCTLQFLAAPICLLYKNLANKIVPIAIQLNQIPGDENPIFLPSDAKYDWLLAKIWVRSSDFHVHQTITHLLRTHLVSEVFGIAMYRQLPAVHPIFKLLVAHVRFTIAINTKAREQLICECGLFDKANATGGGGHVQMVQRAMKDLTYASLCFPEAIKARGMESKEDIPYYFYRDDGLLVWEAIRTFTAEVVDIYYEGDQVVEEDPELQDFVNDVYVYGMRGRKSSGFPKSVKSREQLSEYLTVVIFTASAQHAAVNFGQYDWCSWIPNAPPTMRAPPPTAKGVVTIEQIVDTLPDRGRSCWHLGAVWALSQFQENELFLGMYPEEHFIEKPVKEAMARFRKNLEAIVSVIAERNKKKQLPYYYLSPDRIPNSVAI
Description: The assay of this Example measures the ability of the compounds tested to inhibit 5-lipxygenase in human whole blood.
Blood is obtained in 50-100 ml quantities from male donors. White blood cell counts and differentials are made. Two ml of blood are placed in a 15 ml polypropylene test tube. Compounds are solubilized in dimethylsulfoxide and diluted 1:10 in 10% bovine serum albumin in phosphate buffered saline, pH 7.4 resulting in a final dimethylsulfoxide concentration of 0.1% in the blood. Then, compounds are added to the blood in a shaking water bath at 37° C. for 10 minutes prior to the addition of 30 μM calcium ionophore (A23187; Sigma). After ionophore administration, whole blood samples are mixed and incubated for 20 minutes at 37° C. in a shaking water bath. Incubation is terminated by placing samples in an ice bath and immediately adding ethylene glycol-bis-(β-aminoethyl ether)-N,N,N',N'-tetraacetic acid (10 mM). Samples are mixed and centrifuged at 1200×g for 15 minutes at 4° C. Preparation of samples for evaluation by RIA or ELISA is carried out by the following protocol. Plasma is removed from sample tubes, placed in 15 ml polypropylene test tubes containing 8 ml methanol, and then vortexed to precipitate protein. Samples are stored at -70° C. overnight. The next day, samples are centrifuged at 200×g for 15 minutes at 4° C. to pellet the precipitate. Samples are dried in a Savant speed vac concentrator, reconstituted to original volume with ice cold RIA or ELISA buffer, and stored at -70° C. until assayed. The assay for eicosanoids (LTB4, TxB2, and PGE2) is performed as described by the manufacturer of the [^3 H]-RIA kit or ELISA kit (LTB4 -Amersham, TxB2 and PGE2 - Caymen Chemical).
The total eicosanoid level in 2 ml of blood is calculated and reported as ng/10^6 neutrophils. Significance is determined by a one-way analysis of variance with least significant difference (LSD) comparisons to control (p≤0.05) and IC50 's (μM) are determined by regression analysis (Finney, 1978). Drug effects are expressed as percent change form control values.
Compounds tested in vitro are solubilized in dimethylsulfoxide and diluted 1:10 in 10% bovine serum albumin in phosphate buffer saline resulting in a final dimethylsulfoxide concentration of 0.1% in the blood.

carrageenan paw edema = experiment: rat carrageenan paw edema assay; assay type: in vivo; conditions: Rattus norvegicus, po, 3 h, read-out: Oral ED50 (95% C.L.)
Description: The compounds of the invention are further tested in the rat carrageenan paw edema assay to determine their ability to inhibit the acute inflammatory response.
140-180 gm male Sprague-Dawley rats, in groups of 6 animals are injected subcutaneously in the right paw with 0.1 ml of 1% carrageenan at zero time. Mercury plethysmographic readings (ml) of the paw are made at zero time and 3 hours later. Test compounds are suspended or dissolved in 0.5% methylcellulose and given perorally 1 hour prior to carrageenan administration.
The increase in paw volume (edema in ml.) produced by the carrageenan is measured. […] Unpaired Student's t-test is used to determine statistical significance.

Structure (SMILES)	Kb (LTD4) [nM]	inhibition at 25 µM (5-lipoxygenase) [%]	IC50 (5-lipoxygenase) [nM]	ED50 (carrageenan paw edema) [mg/kg]
C[C@H](NC(=O)NO)c1ccc2cc(OCc3nc4ccccc4s3)ccc2c1 [Example 38, S-(-)-N-[1-[6-(2-Benzothiazolylmethoxy)-2-naphthalenyl]ethyl]-N'-hydroxyurea]	> 6310	52	34400	–
C[C@H](C(=O)N(C)O)c1ccc2cc(OCc3csc(-c4ccccc4)n3)ccc2c1 [Example 39, S(+)-N-Hydroxy-α,N-dimethyl-[6-(2-phenyl-4-thiazolyl)methoxy]-2-naphthaleneacetamide]	10000	91	6900	–
CC(NC(=O)NO)c1ccc2cc(OCc3csc(-c4ccccc4)n3)ccc2c1 (single isomer, unassigned; (-)) [Example 36, (-)-N-Hydroxy-N'-[1-[6-(2-phenyl-4-thiazolyl)methoxy-2-naphthalenyl]ethyl]urea]	> 10000	86	13500	–
CC(=O)Oc1ccccc1C(=O)O [Aspirin, reference compound]	–	–	–	145

Now from value to compound, other results behind:

Kb (LTD4) [nM]	inhibition at 25 µM (5-lipoxygenase) [%]	IC50 (5-lipoxygenase) [nM]	Structure (SMILES)	ED50 (carrageenan paw edema) [mg/kg]
398	83	11400	C[C@H](C(=O)N(C)O)c1ccc2cc(OCc3nc4ccccc4s3)ccc2c1 [Example 41, S-(+)-N-Hydroxy-α,N-dimethyl-6-(2-benzothiazolylmethoxy)-2-naphthaleneacetamideone tenth hydrate]	–
501	84	2300	C[C@H](C(=O)N(C)O)c1ccc2cc(OCc3nc4ccccc4o3)ccc2c1 [Example 47, S-N-Hydroxy-α, N-dimethyl-6-(2-benzoxazolylmethoxy)-2-naphthaleneacetamide]	–
200	75	1100	C[C@H](C(=O)N(C)O)c1ccc2cc(OCc3nc4ccccc4n3C)ccc2c1 [Example 45, S-(+)-N-Hydroxy-α,N-dimethyl-6-[(1-methyl-1H-benzimidazol-2-yl)methoxy]-2-naphthaleneacetamide]	–
1580	86	2000	C[C@H](C(=O)N(C)O)c1ccc2cc(OCc3ccccn3)ccc2c1 [Example 44, S-(+)-N-Hydroxy-α, N-diomethyl-6-(2-pyridinylmethoxy)-2-naphthaleneacetamide]	–
